Data as given in patent US20080293583A1, “Methods for diagnosing mood disorders” (Wyeth, priority 2003, published 2008).

Tested on: progenitor stem cells in the subgranular zone (SGZ) of the hippocampus
Assay: BrdU immunostaining, long-term survivability of progenitor stem cells in SGZ
Type: in vivo, rat
Details: for number of surviving cells in the SGZ relative to saline controls / basal levels: 4 weeks after the last BrdU injection
Method: Antidepressant treatment and BrdU dosing. Dosing of adult male Sprague Dawley rats was performed as described above for 14 days (n=10 rats per group). To evaluate the effect of chronic antidepressant treatment on proliferation of progenitor stem cells, 24 hours after the last antidepressant injection, rats were administered BrdU (Sigma, St. Louis, Mo.) (50 mg/kg rig ip injection twice a day) for 4 days prior to euthanesia. To evaluate the effect of chronic antidepressant treatment on survival of progenitor stem cells, a sub-group of rats were allowed to live for 4 weeks after BrdU injection. All rats were perfused through the ascending aorta with 50 ml of 0.9% saline, followed by 400 ml of freshly prepared 4% paraformaldehyde in PBS (pH 7.5). After 30-60 minutes post-perfusion, rat brains were removed and postfixed in 4% paraformaldehyde in PBS overnight, followed by immersion in 30% sucrose/PBS solution for 48-72 hours at 4° C. Brains were rapidly frozen on dry-ice and stored at −80° C. Brain sectioning and staining for BrdU immunoreactivity were performed as previously described by Malberg et al. (2000). Briefly, serial coronal sections of each brain were cut (35 μm thickness) through the entire hippocampus (stereotaxic plates 26-40 according to Paxinos, Watson and Emson, 1980) using a freezing microtome. Every sixth section throughout the hippocampus was processed for BrdU staining. Free-floating sections were maintained in 100 mM PBS (about 100 sections per brain). DNA denaturation of the sections was performed as follows: sections were treated with 50% formamide/50% 2×SSC (0.3 M NaCl/0.03 M sodium citrate) for 2 hours at 65° C., rinsed in PBS (2 times for 5 minutes at room temperature), incubated with 2 N HCl for 30 minutes, followed by 0.1 M boric acid buffer (pH 8.5) for 10 minutes and a final rinse in PBS. For BrdU immunostaining, sections were incubated with 3% H2O2 in PBS for 30 minutes, rinsed in PBS and blocked with 3% normal horse serum in 0.01% TritonX-100 for 30 minutes. Anti-mouse BrdU (1:250 Sigma) was applied to the free-floating sections and incubated overnight at 4° C. The sections were rinsed in PBS, incubated with biotinylated horse, anti-mouse IgG (Vector Lab) for 30 minutes and washed in PBS. ABC reagent complex (Vectastain Elite kit from Vector) was added (as per manufacturer's instructions) for 30 minutes, followed by rinsing in PBS and color development with DAB solution for 4 minutes. Sections were mounted on glass slides and coverslipped. All BrdU labeled cells in the subgranular zone (SGZ) were counted in each section by an experimenter blinded to the study code. All counts were performed at 200× magnification using a light microscope (Zeiss Axiovert 135). The total number of BrdU labeled cells per section were determined and multiplied by 12 to obtain the total number of cells per dentate gyrus. Comparative analyses between treatments were performed using a Tukey HSD post hoc analysis for multiple comparisons.
In vivo studies were performed to measure the effects of antidepressant drug treatment on adult hippocampal neurogenesis by immunological methods. The method used to detect cell proliferation involved 5-bromo-2-deoxyuridine (BrdU) dosing twice a day for 4 days after a 2 week systemic administration of either saline, fluoxetine or venlafaxine. The presence of BrdU within the vicinity of dividing progenitor stem cells in the hippocampal region allowed for its incorporation and the detection of DNA synthesis (the more cell proliferation the more DNA synthesis). The number of BrdU-positive cells was visualized by immunoperoxidase staining. The BrdU immunostaining and quantitative results indicated a significant increase (˜33%) in the proliferation rate of progenitor stem cells in the subgranular zone (SGZ) of the hippocampus for both venlafaxine (P<0.01; n=5) and fluoxetine (P<0.01; n=5) versus saline controls. […]

SMILES	number of surviving cells in the SGZ relative to saline controls / basal levels (FIG. 1B)	number of surviving cells in the SGZ relative to saline controls / basal levels (FIG. 1B, listed as fluoxetine)	sustainability in the rate of proliferation and survivability of progenitor stem cells over basal levels (4 weeks after the last antidepressant dose) [%]	overall number of surviving cells, venlafaxine versus fluoxetine (FIG. 1B, P<0.01)	more cells compared with fluoxetine (long-term survivability, venlafaxine versus fluoxetine) [%]
CNCCC(Oc1ccc(C(F)(F)F)cc1)c1ccccc1 (stereo not drawn) [Fluoxetine, fluoxetine]	significant preservation of proliferative and survivability effects over basal levels	increased the number of surviving cells in the SGZ	–	–	–
COc1ccc(C(CN(C)C)C2(O)CCCCC2)cc1 (stereo not drawn) [Venlafaxine, venlafaxine]	increased the number of surviving cells in the SGZ	–	80	significant increase in the overall number of surviving cells	~40
